# Molecular target: human erythrocyte 20S proteasome (Homo sapiens, UniProt P28074)
# Test: 20S proteasome inhibition assay (chymotrypsin-like activity, Suc-LLVY-AMC substrate)
# Conditions: not given
row,IC50 [µM],SMILES
1,1.2 ± 0.3,"C/C=C(/C)c1cc(OC)cc(=O)o1 [Compound 8, pestalotiopyrone G]"
2,> 100,"COc1cc(C(C)(O)C(C)O)oc(=O)c1 (centres unmarked) [Compound 6, pestalotiopyrone D]"
3,7.9 ± 1.8,"CCC(O)C[C@H](O)C1CC(OC)=CC(=O)O1 (some centres unmarked) [Compound 10, photipyrone B]"
4,8.9 ± 1.5,"CCC[C@@H](O)[C@H](O)C1CC(OC)=CC(=O)O1 (some centres unmarked) [Compound 9, LL-P880b]"
5,> 100,"COc1cc(C(C)C(C)O)oc(=O)c1 (centres unmarked) [Compound 7, pestalotiopyrone E]"
6,20.5 ± 2.3,"COC1=CC(=O)OC(CO)C1 (centres unmarked) [Compound 5, 6-hydroxymethyl-4-methoxy-5,6-dihydro-2H-pyran-2-one]"

# More lines, now with the values behind:
row,SMILES,IC50 [µM]
1,"COc1c(/C=C/C(C)(C)O)ccc2c1C(=O)OCc1cc(C)cc(O)c1O2 [Compound 4, dehydroisopenicillide]",> 100
2,"C=C(C)[C@@H](O)[C@@H](O)c1ccc2c(c1OC)C(=O)OCc1cc(C)cc(O)c1O2 [Compound 3, pestalotiollide A]",12.4 ± 1.1
3,"C=C(C)[C@@H](O)[C@H](O)c1ccc2c(c1OC)C(=O)OCc1cc(C)cc(O)c1O2 [Compound 2, pestalotiollide B]",18.5 ± 4.2
4,"COc1c(/C=C/C(C)(C)OC)ccc2c1C(=O)OCc1cc(C)cc(O)c1O2 [Compound 1, 3′-O-methyldehydroisopenicillide]",30.5 ± 1.5

# Same assay, conditions: chymotrypsin-like activity
row,SMILES,20S proteasome inhibitory activity (in words)
1,"C/C=C(/C)c1cc(OC)cc(=O)o1 [Compound 8, pestalotiopyrone G]",strong activity

# Source: article PMC6273089, “Secondary Metabolites Produced by an Endophytic Fungus Pestalotiopsis sydowiana and Their 20S Proteasome Inhibitory Activities” (Molecules, 2016)
